Here are results for two molecules from US10245245B2, “Compositions and methods for neuroprotection and treatment of neurodegeneration” (Vireo Systems, Inc., priority 2015, dated 2019).

Data set [1] deals with confirmed carriers of the HD gene mutation. Nature of the data set: Creatine HCl in patients having HD gene mutation (clinical neurological assessment, MRI). The class given is in vivo, human. As to conditions: 10 to 12 grams/day. As to the method:
Patients were confirmed carriers of the HD gene mutation at early stage 1 progression. Each patient was instructed to take 10 to 12 grams/day of creatine HCl. Neurological progression of disease was monitored quarterly as were full blood chemistry profiles. Assessment of neurological progression using magnetic resonance imaging (MRI) was also performed at a minimum of once a year.

Data set [2] is described as follows: Relative bioavailability. To be noted: in vivo.
For data set [3] the following is noted: cited from earlier work.

Consider `CN(CC(=O)O)C(=N)N.Cl` [creatine HCl, creatine hydrochloride], for which, in data set [1] (3.5 years, early stage 1 carriers), the “progression of disease (clinical neurological assessments or MRI)” value is recorded as “no progression of disease”. In addition, the “onset of the disease / symptoms” value in data set [1] (over the 3.5 year time period) was “no symptoms”. The “relative bioavailability, greater than creatine monohydrate” value in data set [2] is “at least 50%”.

Take `CN(CC(=O)O)C(=N)N.O` [creatine monohydrate]: in data set [3] (30 g daily), the “patients unable to tolerate the maximum dose” value is listed as “about one-third”. In data set [3] (maximal dose 30 g daily), the “those on placebo unable to tolerate the maximal dose when they switched to it” value is recorded as 13%.
